# In PubChem BioAssay AID1259407 (Chemical Carcinogenesis Research Information System (CCRIS), 2018):
# Activity calls are given as the source filed them. How the calls were made is not given here.
# Test system: CCRIS mutagenicity, Ames/micronucleus/aberration tests
# Assay: CCRIS mutagenicity studies
# [1] = Test System: AMES SALMONELLA TYPHIMURIUM, Strain/Indicator: TA98, Metabolic Activation: NONE, Method: PREINCUBATION
# [2] = Test System: AMES SALMONELLA TYPHIMURIUM, Strain/Indicator: TA100, Metabolic Activation: NONE, Method: PREINCUBATION
structure (smiles),measurement,setting,value
c1cc2ccc3cccc4ccc(c1)c2c34,mutagenic call,"End Point: IN VITRO MICRONUCLEUS, Test System: CHO CELLS, Metabolic Activation: RAT, LIVER, S-9, AROCLOR 1254",inactive; negative
same,mutagenic call,"End Point: IN VITRO MICRONUCLEUS, Test System: V79 CELLS, Metabolic Activation: NONE",inactive; negative
same,mutagenic call,"Test System: AMES SALMONELLA TYPHIMURIUM, Strain/Indicator: TA97, Metabolic Activation: NONE, Method: STANDARD PLATE",inactive; negative
same,mutagenic call,"Test System: AMES SALMONELLA TYPHIMURIUM, Strain/Indicator: TA97, Metabolic Activation: RAT, LIVER, S-9, AROCLOR 1254, Method: STANDARD PLATE",active; positive
same,mutagenic call,"Test System: AMES SALMONELLA TYPHIMURIUM, Strain/Indicator: TA97, Metabolic Activation: RAT, LIVER, S-9, PCB, Method: STANDARD PLATE",active; positive
same,mutagenic call,"Test System: AMES SALMONELLA TYPHIMURIUM, Strain/Indicator: TA97A, Metabolic Activation: RAT, LIVER, S-9, AROCLOR 1254, Method: STANDARD PLATE",active; positive
same,mutagenic call,[1],inactive; negative
same,mutagenic call,"Test System: AMES SALMONELLA TYPHIMURIUM, Strain/Indicator: TA98, Metabolic Activation: NONE, Method: STANDARD PLATE",inactive; negative
same,mutagenic call,"Test System: AMES SALMONELLA TYPHIMURIUM, Strain/Indicator: TA98, Metabolic Activation: RAT, LIVER, S-9, AROCLOR 1254, Method: PREINCUBATION",inactive; negative
same,mutagenic call,"Test System: AMES SALMONELLA TYPHIMURIUM, Strain/Indicator: TA98, Metabolic Activation: RAT, LIVER, S-9, AROCLOR 1254, Method: STANDARD PLATE",inactive; negative
same,mutagenic call,"Test System: AMES SALMONELLA TYPHIMURIUM, Strain/Indicator: TA98, Metabolic Activation: RAT, LIVER, S-9, PCB, Method: STANDARD PLATE",active; positive
same,mutagenic call,"Test System: AMES SALMONELLA TYPHIMURIUM, Strain/Indicator: TA100, Metabolic Activation: MOUSE, LIVER, MICROSOMES, BENZO[E]PYRENE AND TCDD, Method: STANDARD PLATE",inactive; negative
same,mutagenic call,[2],inactive; negative
same,mutagenic call,"Test System: AMES SALMONELLA TYPHIMURIUM, Strain/Indicator: TA100, Metabolic Activation: NONE, Method: STANDARD PLATE",inactive; negative
same,mutagenic call,"Test System: AMES SALMONELLA TYPHIMURIUM, Strain/Indicator: TA100, Metabolic Activation: RAT, LIVER, S-9, AROCLOR 1254, Method: PREINCUBATION",inactive; negative
same,mutagenic call,"Test System: AMES SALMONELLA TYPHIMURIUM, Strain/Indicator: TA100, Metabolic Activation: RAT, LIVER, S-9, PCB, Method: STANDARD PLATE",inactive; negative
same,mutagenic call,"Test System: AMES SALMONELLA TYPHIMURIUM, Strain/Indicator: TA1537, Metabolic Activation: RAT, LIVER, S-9, AROCLOR 1254, Method: STANDARD PLATE",active; positive
same,mutagenic call,"Test System: CHINESE HAMSTER OVARY, Strain/Indicator: CHO (HGPRT)/6-THIOGUANINE, Metabolic Activation: NONE, Method: STANDARD PLATE",inactive; negative
same,mutagenic call,"Test System: CHINESE HAMSTER OVARY, Strain/Indicator: CHO (HGPRT)/6-THIOGUANINE, Metabolic Activation: RAT, LIVER, S-9, AROCLOR 1254, Method: STANDARD PLATE",inactive; negative
same,mutagenic call,"Test System: CHINESE HAMSTER OVARY, Strain/Indicator: CHO-K1-BH4 (HGPRT)/6-THIOGUANINE, Metabolic Activation: NONE, Method: SUSPENSION/PLATE",inactive; negative
same,mutagenic call,"Test System: CHINESE HAMSTER OVARY, Strain/Indicator: CHO-K1-BH4 (HGPRT)/6-THIOGUANINE, Metabolic Activation: S-9, Method: SUSPENSION/PLATE",inactive; negative
same,mutagenic call,"Test System: CHINESE HAMSTER OVARY, Strain/Indicator: CHO-K1-BH4 (HGPRT), Metabolic Activation: NONE, Method: SUSPENSION/PLATE",inactive; negative
same,mutagenic call,"Test System: CHINESE HAMSTER OVARY, Strain/Indicator: CHO-K1-BH4 (HGPRT), Metabolic Activation: RAT, LIVER, S-9, AROCLOR, Method: SUSPENSION/PLATE",inactive; negative
same,mutagenic call,"Test System: E. COLI, Strain/Indicator: WP2 UVRA, Metabolic Activation: HAMSTER, LIVER, S-9, AROCLOR 1254, Method: STANDARD PLATE",inactive; negative
same,mutagenic call,"Test System: E. COLI, Strain/Indicator: WP2 UVRA, Metabolic Activation: HAMSTER, LIVER, S-9, Method: STANDARD PLATE",inactive; negative
same,mutagenic call,"Test System: E. COLI, Strain/Indicator: WP2 UVRA, Metabolic Activation: MOUSE, LIVER, S-9, AROCLOR 1254, Method: STANDARD PLATE",inactive; negative
same,mutagenic call,"Test System: E. COLI, Strain/Indicator: WP2 UVRA, Metabolic Activation: MOUSE, LIVER, S-9, Method: STANDARD PLATE",inactive; negative
same,mutagenic call,"Test System: E. COLI, Strain/Indicator: WP2 UVRA, Metabolic Activation: NONE, Method: STANDARD PLATE",inactive; negative
same,mutagenic call,"Test System: E. COLI, Strain/Indicator: WP2 UVRA, Metabolic Activation: RAT, LIVER, S-9, AROCLOR 1254, Method: STANDARD PLATE",inactive; negative
same,mutagenic call,"Test System: E. COLI, Strain/Indicator: WP2 UVRA, Metabolic Activation: RAT, LIVER, S-9, Method: STANDARD PLATE",inactive; negative
same,mutagenic call,"Test System: MOUSE LYMPHOMA, Strain/Indicator: L5178Y (TK+/TK-), Metabolic Activation: NONE, Method: SUSPENSION/PLATE",inactive; negative
same,mutagenic call,"Test System: MOUSE LYMPHOMA, Strain/Indicator: L5178Y (TK+/TK-), Metabolic Activation: RAT, LIVER, S-9, AROCLOR 1254, Method: SUSPENSION/PLATE",active; positive
same,mutagenic call,"Test System: MOUSE LYMPHOMA, Strain/Indicator: L5178Y (TK+/TK-), Metabolic Activation: S-9, Method: SUSPENSION/PLATE",active; positive
same,mutagenic call,"Test System: UDS RAT HEPATOCYTES, Strain/Indicator: BROMODEOXYURIDINE INCORP, Metabolic Activation: NONE, Method: FLOW CYTOMETRIC ANALYSIS",inactive; negative
same,mutagenic call,"Test System: UDS RAT HEPATOCYTES, Strain/Indicator: THY INCORP, Metabolic Activation: NONE, Method: AUTORADIOGRAPHY",inactive; negative
same,mutagenic call,"Test System: UDS RODENT HEPATOCYTES, Strain/Indicator: THY INCORP, Metabolic Activation: NONE, Method: AUTORADIOGRAPHY",inactive; negative
same,mutagenic call,"Test System: UDS, Strain/Indicator: HEPG2/THYMIDINE INCORPORATION, Metabolic Activation: NONE, Method: AUTORADIOGRAPHY",inactive; negative
[Cl][Sb]([Cl])[Cl],mutagenic call,[1],inactive; negative
same,mutagenic call,"Test System: AMES SALMONELLA TYPHIMURIUM, Strain/Indicator: TA98, Metabolic Activation: RAT, LIVER, S-9 (10%), Method: PREINCUBATION",inactive; negative
same,mutagenic call,[2],inactive; negative
same,mutagenic call,"Test System: AMES SALMONELLA TYPHIMURIUM, Strain/Indicator: TA100, Metabolic Activation: RAT, LIVER, S-9 (10%), Method: PREINCUBATION",inactive; negative
O=[N+]([O-])c1ccc2c(c1)-c1ccccc1C2,mutagenic call,"End Point: IN VITRO CHROMOSOMAL ABERRATIONS, Test System: CHINESE HAMSTER LUNG (CHL) CELLS, Metabolic Activation: NONE",inactive; negative
same,mutagenic call,"End Point: IN VITRO CHROMOSOMAL ABERRATIONS, Test System: CHINESE HAMSTER LUNG (CHL) CELLS, Metabolic Activation: RAT, LIVER, S-9, KC-400",active; positive
same,mutagenic call,"Test System: AMES SALMONELLA TYPHIMURIUM, Strain/Indicator: TA98 (1,8-DNP6), Metabolic Activation: NONE, Method: PREINCUBATION",active; positive
same,mutagenic call,"Test System: AMES SALMONELLA TYPHIMURIUM, Strain/Indicator: TA98(NR), Metabolic Activation: NONE, Method: PREINCUBATION",active; positive
same,mutagenic call,"Test System: AMES SALMONELLA TYPHIMURIUM, Strain/Indicator: TA98(NR), Metabolic Activation: RAT LIVER S-9 (10%), Method: PREINCUBATION",active; positive
same,mutagenic call,"Test System: AMES SALMONELLA TYPHIMURIUM, Strain/Indicator: TA98 (NR), Metabolic Activation: RAT LIVER S-9, 3-METHYLCHOLANTHRENE (10%), Method: PREINCUBATION",active; positive
same,mutagenic call,"Test System: AMES SALMONELLA TYPHIMURIUM, Strain/Indicator: TA98(NR), Metabolic Activation: RAT LIVER S-9, BETA-NAPHTHAFLAVONE (10%), Method: PREINCUBATION",active; positive
same,mutagenic call,"Test System: AMES SALMONELLA TYPHIMURIUM, Strain/Indicator: TA98(NR), Metabolic Activation: RAT LIVER S-9, PCB (10%), Method: PREINCUBATION",active; positive
same,mutagenic call,"Test System: AMES SALMONELLA TYPHIMURIUM, Strain/Indicator: TA98(NR), Metabolic Activation: RAT LIVER S-9, PHENOBARBITAL (10%), Method: PREINCUBATION",active; positive
same,mutagenic call,[1],active; positive
O=C(N=c1sn(C(=O)c2ccc([N+](=O)[O-])cc2)c2ccc(Cl)cc12)c1ccc([N+](=O)[O-])cc1,mutagenic call,"Test System: AMES SALMONELLA TYPHIMURIUM, Strain/Indicator: TA100, Metabolic Activation: S-9, Method: STANDARD PLATE",active; positive
